The structures appear in SMILES notation.

This test deals with T1, Androgen Receptor (AR) protein (Homo sapiens, UniProt P10275, T878A).
T1 construct: endogenous in cells; host or cells: LNCaP
Nature of the test: Androgen Receptor (AR) protein degradation assay in LNCaP cells, western blotting. In kind it is cell-based. To be noted: 20 h; for inhibition at 0.01 µM: 0.01 μM compound; for inhibition at 0.1 µM: 0.1 μM compound; for inhibition at 1 µM: 1 μM compound. The method in brief: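 AR protein level was detected by western blot (ECL) against GAPDH or β-actin controls, with 8 μg lysate protein loaded per lane after BCA quantification. Lysates came from LNCaP cells exposed to test compound for 20 h, following 3 days of growth in RPMI/10% FBS.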
On the technique in general: Immunoblotting shows a protein as a band on a membrane.

T1 sequence (P10275 whole entry T878A): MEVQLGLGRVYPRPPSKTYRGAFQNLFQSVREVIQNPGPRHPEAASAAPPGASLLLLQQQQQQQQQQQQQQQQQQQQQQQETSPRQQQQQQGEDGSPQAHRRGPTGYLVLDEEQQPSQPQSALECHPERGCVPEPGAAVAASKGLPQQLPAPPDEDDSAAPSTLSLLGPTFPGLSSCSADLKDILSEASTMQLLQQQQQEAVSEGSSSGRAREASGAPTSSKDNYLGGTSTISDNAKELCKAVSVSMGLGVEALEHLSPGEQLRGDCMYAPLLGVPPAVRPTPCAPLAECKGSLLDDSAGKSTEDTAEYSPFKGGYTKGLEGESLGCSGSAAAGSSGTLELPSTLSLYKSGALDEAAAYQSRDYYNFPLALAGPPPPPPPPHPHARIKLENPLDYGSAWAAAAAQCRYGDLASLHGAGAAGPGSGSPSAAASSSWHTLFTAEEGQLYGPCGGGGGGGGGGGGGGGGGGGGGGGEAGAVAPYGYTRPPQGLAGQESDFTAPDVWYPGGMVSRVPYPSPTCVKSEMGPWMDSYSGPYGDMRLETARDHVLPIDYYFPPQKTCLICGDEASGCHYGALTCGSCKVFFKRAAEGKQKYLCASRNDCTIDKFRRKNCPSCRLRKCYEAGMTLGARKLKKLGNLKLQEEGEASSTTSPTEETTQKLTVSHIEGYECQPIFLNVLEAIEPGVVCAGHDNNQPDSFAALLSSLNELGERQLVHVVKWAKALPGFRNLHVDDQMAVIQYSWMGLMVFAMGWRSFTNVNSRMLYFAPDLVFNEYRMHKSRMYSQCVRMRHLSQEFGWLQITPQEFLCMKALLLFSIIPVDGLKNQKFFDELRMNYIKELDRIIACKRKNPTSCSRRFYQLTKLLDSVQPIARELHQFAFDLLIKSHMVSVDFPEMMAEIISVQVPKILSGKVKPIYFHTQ
T1 sequence (Q96SW2 whole entry partner): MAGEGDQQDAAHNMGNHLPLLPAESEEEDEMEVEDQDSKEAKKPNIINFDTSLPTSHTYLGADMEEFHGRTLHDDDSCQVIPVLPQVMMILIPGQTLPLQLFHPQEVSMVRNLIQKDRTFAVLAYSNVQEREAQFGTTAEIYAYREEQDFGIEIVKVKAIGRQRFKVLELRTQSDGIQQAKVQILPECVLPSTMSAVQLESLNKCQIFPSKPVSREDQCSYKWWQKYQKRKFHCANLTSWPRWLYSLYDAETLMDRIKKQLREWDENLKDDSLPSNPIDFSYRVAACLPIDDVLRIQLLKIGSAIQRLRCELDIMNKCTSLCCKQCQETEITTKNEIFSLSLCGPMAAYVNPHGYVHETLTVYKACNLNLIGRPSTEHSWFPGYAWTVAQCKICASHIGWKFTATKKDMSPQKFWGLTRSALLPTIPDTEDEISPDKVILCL

As usually defined, the inhibition is the relative decrease from the control value, in per cent. A higher inhibition goes with strong suppression. For `N#Cc1ccc(N2CCC(C(=O)Nc3ccc(N4CC5(CCN(CC6CN(c7ccc8c(c7)C(=O)N(C7CCC(=O)NC7=O)C8=O)C6)CC5)C4)cn3)CC2)cc1Cl` (stereo not shown) [Example 124, 1-(3-chloro-4-cyanophenyl)-N-(5-(7-((1-(2-(2,6-dioxopiperidin-3-yl)-1,3-dioxoisoindolin-5-yl)azetidin-3-yl)methyl)-2,7-diazaspiro[3.5]nonan-2-yl)pyridin-2-yl)piperidine-4-carboxamide], at 0.01 µM the inhibition was 52%, the inhibition at 0.1 µM was determined as 88% and at 1 µM the inhibition was 96%.
`N#Cc1ccc(N2CCC(C(=O)Nc3ccc(N4CCC(CN5CCN(C6CCN(c7ccc8c(c7)C(=O)N(C7CCC(=O)NC7=O)C8=O)CC6)CC5)CC4)cn3)CC2)cc1C(F)(F)F` (stereo not shown) [Example 70, 1-(4-cyano-3-(trifluoromethyl)phenyl)-N-(5-(4-((4-(1-(2-(2,6-dioxopiperidin-3-yl)-1,3-dioxoisoindolin-5-yl)piperidin-4-yl)piperazin-1-yl)methyl)piperidin-1-yl)pyridin-2-yl)piperidine-4-carboxamide] returned an inhibition at 0.01 µM of 85%, an inhibition at 0.1 µM of 99% and an inhibition at 1 µM of 99%. This molecule also showed an inhibition at 10 µM (10 μM compound) of 97%.
`N#Cc1ccc(N2CCC(C(=O)Nc3ccc(N4CCC(CN5CCN(C6CCN(c7cccc8c7C(=O)N(C7CCC(=O)NC7=O)C8=O)CC6)CC5)CC4)cn3)CC2)cc1C(F)(F)F` (stereo not shown) [Example 76, 1-(4-cyano-3-(trifluoromethyl)phenyl)-N-(5-(4-((4-(1-(2-(2,6-dioxopiperidin-3-yl)-1,3-dioxoisoindolin-4-yl)piperidin-4-yl)piperazin-1-yl)methyl)piperidin-1-yl)pyridin-2-yl)piperidine-4-carboxamide] showed an inhibition at 0.01 µM of 36%, an inhibition at 0.1 µM of 85% and an inhibition at 1 µM of 88%.
In turn, `N#Cc1ccc(N2CCC(C(=O)Nc3ccc(N4CC(CN5CCN(CC6CCN(c7ccc8c(c7)C(=O)N(C7CCC(=O)NC7=O)C8=O)CC6)CC5)C4)cn3)CC2)cc1C(F)(F)F` (stereo not shown) [Example 27, 1-(4-cyano-3-(trifluoromethyl)phenyl)-N-(5-(3-((4-((1-(2-(2,6-dioxopiperidin-3-yl)-1,3-dioxoisoindolin-5-yl)piperidin-4-yl)methyl)piperazin-1-yl)methyl)azetidin-1-yl)pyridin-2-yl)piperidine-4-carboxamide] yielded an inhibition at 0.01 µM of 78%, an inhibition at 0.1 µM of 97% and an inhibition at 1 µM of 97%.
In turn, `N#Cc1ccc(N2CCC(C(=O)Nc3ccc(N4CCC(CN5CCC(COc6ccc7c(c6)C(=O)N(C6CCC(=O)NC6=O)C7=O)CC5)CC4)cn3)CC2)cc1C(F)(F)F` (stereo not shown) [Example 147, 1-(4-cyano-3-(trifluoromethyl)phenyl)-N-(5-(4-((4-(((2-(2,6-dioxopiperidin-3-yl)-1,3-dioxoisoindolin-5-yl)oxy)methyl)piperidin-1-yl)methyl)piperidin-1-yl)pyridin-2-yl)piperidine-4-carboxamide] had an inhibition at 0.01 µM of 68%, an inhibition at 0.1 µM of 96% and an inhibition at 1 µM of 97%.
In turn, `N#Cc1ccc(N2CCC(C(=O)Nc3ccc(N4CCC(CN5CCC(CN6CCN(c7ccc8c(c7)C(=O)N(C7CCC(=O)NC7=O)C8=O)CC6)CC5)CC4)cn3)CC2)cc1C(F)(F)F` (stereo not shown) [Example 81, 1-(4-cyano-3-(trifluoromethyl)phenyl)-N-(5-(4-((4-((4-(2-(2,6-dioxopiperidin-3-yl)-1,3-dioxoisoindolin-5-yl)piperazin-1-yl)methyl)piperidin-1-yl)methyl)piperidin-1-yl)pyridin-2-yl)piperidine-4-carboxamide] yielded an inhibition at 0.01 µM of 44%, an inhibition at 0.1 µM of 87% and an inhibition at 1 µM of 96%.

The record behind these values is patent publication US12122763B2, “Substituted piperidines for androgen receptor degradation” (UBIX THERAPEUTICS, INC., priority 2020, dated 2024).
